# Data as given in ChEMBL document CHEMBL3576778, “Structure-Activity Relationship Studies of a Series of Semisynthetic Lipopeptides Leading to the Discovery of Surotomycin, a Novel Cyclic Lipopeptide Being Developed for the Treatment of Clostridium difficile-Associated Diarrhea” (J Med Chem, 2015).
# Experiments:
# Type in all cases: functional
# Clostridioides difficile [1] = test: Antimicrobial activity against daptomycin-resistant Clostridium difficile NAP1 incubated anaerobically at 37 degC for 48 hrs by agar dilution method; settings: NAP1, 48 h
# Staphylococcus aureus [2] = test: Antimicrobial activity against daptomycin-susceptible Staphylococcus aureus ATCC 29213 incubated anaerobically at 37 degC for 48 hrs by agar dilution method; settings: ATCC 29213, 48 h
# Enterococcus faecium = test: Antimicrobial activity against daptomycin-resistant Enterococcus faecium ATCC 6569 incubated anaerobically at 37 degC for 48 hrs by agar dilution method; settings: ATCC 6569, 48 h
# Enterococcus faecalis [3] = test: Antimicrobial activity against daptomycin-resistant Enterococcus faecalis ATCC 49452 incubated anaerobically at 37 degC for 48 hrs by agar dilution method; settings: ATCC 49452, 48 h
# Enterococcus faecalis [4] = test: Potency index, ratio of MIC for daptomycin to MIC for test compound against daptomycin-resistant Enterococcus faecalis ATCC 49452 incubated anaerobically at 37 degC for 48 hrs by agar dilution method
# Staphylococcus aureus [5] = test: Antimicrobial activity against daptomycin-non-susceptible Staphylococcus aureus 1145 incubated anaerobically at 37 degC for 48 hrs by agar dilution method; settings: Staphylococcus aureus, 1145, 48 h
# Staphylococcus aureus [6] = test: Antimicrobial activity against daptomycin-non-susceptible Staphylococcus aureus 1146 incubated anaerobically at 37 degC for 48 hrs by agar dilution method; settings: Staphylococcus aureus, 1146, 48 h
# Staphylococcus aureus [7] = test: Antimicrobial activity against daptomycin-non-susceptible Staphylococcus aureus 1179 incubated anaerobically at 37 degC for 48 hrs by agar dilution method; settings: Staphylococcus aureus, 1179, 48 h
# Staphylococcus aureus [8] = test: Antimicrobial activity against daptomycin-non-susceptible Staphylococcus aureus 1326 incubated anaerobically at 37 degC for 48 hrs by agar dilution method; settings: Staphylococcus aureus, 1326, 48 h
# Staphylococcus aureus [9] = test: Antimicrobial activity against daptomycin-non-susceptible Staphylococcus aureus 1616 incubated anaerobically at 37 degC for 48 hrs by agar dilution method; settings: Staphylococcus aureus, 1616, 48 h
# Staphylococcus aureus [10] = test: Antimicrobial activity against daptomycin-non-susceptible Staphylococcus aureus 5005 incubated anaerobically at 37 degC for 48 hrs by agar dilution method; settings: Staphylococcus aureus, 5005, 48 h
# Staphylococcus aureus [11] = test: Antimicrobial activity against daptomycin-non-susceptible Staphylococcus aureus 5006 incubated anaerobically at 37 degC for 48 hrs by agar dilution method; settings: Staphylococcus aureus, 5006, 48 h
# Staphylococcus aureus [12] = test: Antimicrobial activity against daptomycin-non-susceptible Staphylococcus aureus 5008 incubated anaerobically at 37 degC for 48 hrs by agar dilution method; settings: Staphylococcus aureus, 5008, 48 h
# Staphylococcus aureus [13] = test: Antimicrobial activity against daptomycin-non-susceptible Staphylococcus aureus 5010 incubated anaerobically at 37 degC for 48 hrs by agar dilution method; settings: Staphylococcus aureus, 5010, 48 h
# Staphylococcus aureus [14] = test: Antimicrobial activity against daptomycin-non-susceptible Staphylococcus aureus 5012 incubated anaerobically at 37 degC for 48 hrs by agar dilution method; settings: Staphylococcus aureus, 5012, 48 h
# Staphylococcus aureus [15] = test: Antimicrobial activity against daptomycin-non-susceptible Staphylococcus aureus 5014 incubated anaerobically at 37 degC for 48 hrs by agar dilution method; settings: Staphylococcus aureus, 5014, 48 h
# Staphylococcus aureus [16] = test: Antimicrobial activity against daptomycin-non-susceptible Staphylococcus aureus 5017 incubated anaerobically at 37 degC for 48 hrs by agar dilution method; settings: Staphylococcus aureus, 5017, 48 h
# Staphylococcus aureus [17] = test: Antimicrobial activity against daptomycin-non-susceptible Staphylococcus aureus 5033 incubated anaerobically at 37 degC for 48 hrs by agar dilution method; settings: Staphylococcus aureus, 5033, 48 h
# Staphylococcus aureus [18] = test: Antimicrobial activity against daptomycin-non-susceptible Staphylococcus aureus 5034 incubated anaerobically at 37 degC for 48 hrs by agar dilution method; settings: Staphylococcus aureus, 5034, 48 h
# Staphylococcus aureus [19] = test: Antimicrobial activity against daptomycin-non-susceptible Staphylococcus aureus 5081 incubated anaerobically at 37 degC for 48 hrs by agar dilution method; settings: Staphylococcus aureus, 5081, 48 h
# Staphylococcus aureus [20] = test: Antimicrobial activity against daptomycin-non-susceptible Staphylococcus aureus 5091 incubated anaerobically at 37 degC for 48 hrs by agar dilution method; settings: Staphylococcus aureus, 5091, 48 h
# Staphylococcus aureus [21] = test: Potency index, ratio of MIC for daptomycin to MIC for test compound against daptomycin-non-susceptible Staphylococcus aureus 278 incubated anaerobically at 37 degC for 48 hrs by agar dilution method
# Staphylococcus aureus [22] = test: Potency index, ratio of MIC for daptomycin to MIC for test compound against daptomycin-non-susceptible Staphylococcus aureus 1145 incubated anaerobically at 37 degC for 48 hrs by agar dilution method
# Staphylococcus aureus [23] = test: Potency index, ratio of MIC for daptomycin to MIC for test compound against daptomycin-non-susceptible Staphylococcus aureus 1146 incubated anaerobically at 37 degC for 48 hrs by agar dilution method
# Staphylococcus aureus [24] = test: Potency index, ratio of MIC for daptomycin to MIC for test compound against daptomycin-non-susceptible Staphylococcus aureus 1179 incubated anaerobically at 37 degC for 48 hrs by agar dilution method
# Staphylococcus aureus [25] = test: Potency index, ratio of MIC for daptomycin to MIC for test compound against daptomycin-non-susceptible Staphylococcus aureus 1616 incubated anaerobically at 37 degC for 48 hrs by agar dilution method
# Staphylococcus aureus [26] = test: Potency index, ratio of MIC for daptomycin to MIC for test compound against daptomycin-non-susceptible Staphylococcus aureus 5005 incubated anaerobically at 37 degC for 48 hrs by agar dilution method
# Staphylococcus aureus [27] = test: Potency index, ratio of MIC for daptomycin to MIC for test compound against daptomycin-non-susceptible Staphylococcus aureus 5006 incubated anaerobically at 37 degC for 48 hrs by agar dilution method
# Staphylococcus aureus [28] = test: Potency index, ratio of MIC for daptomycin to MIC for test compound against daptomycin-non-susceptible Staphylococcus aureus 5008 incubated anaerobically at 37 degC for 48 hrs by agar dilution method
# Staphylococcus aureus [29] = test: Potency index, ratio of MIC for daptomycin to MIC for test compound against daptomycin-non-susceptible Staphylococcus aureus 5010 incubated anaerobically at 37 degC for 48 hrs by agar dilution method
# Staphylococcus aureus [30] = test: Potency index, ratio of MIC for daptomycin to MIC for test compound against daptomycin-non-susceptible Staphylococcus aureus 5033 incubated anaerobically at 37 degC for 48 hrs by agar dilution method
# Staphylococcus aureus [31] = test: Potency index, ratio of MIC for daptomycin to MIC for test compound against daptomycin-non-susceptible Staphylococcus aureus 5034 incubated anaerobically at 37 degC for 48 hrs by agar dilution method
# Staphylococcus aureus [32] = test: Potency index, ratio of MIC for daptomycin to MIC for test compound against daptomycin-non-susceptible Staphylococcus aureus 5063 incubated anaerobically at 37 degC for 48 hrs by agar dilution method
# Staphylococcus aureus [33] = test: Potency index, ratio of MIC for daptomycin to MIC for test compound against daptomycin-non-susceptible Staphylococcus aureus 5081 incubated anaerobically at 37 degC for 48 hrs by agar dilution method
# Staphylococcus aureus [34] = test: Potency index, ratio of MIC for daptomycin to MIC for test compound against daptomycin-non-susceptible Staphylococcus aureus 5091 incubated anaerobically at 37 degC for 48 hrs by agar dilution method
# Clostridioides difficile [35] = test: Antimicrobial activity against daptomycin-resistant Clostridium difficile ATCC 43596 infected in Syrian golden hamster model of Clostridium difficile-associated diarrhea assessed as protection against microbial infection by measuring survival at day 25 to 26 at 0.5 mg/kg treated once daily for 5 consecutive days starting 4 hrs after spore inoculation
smiles,measurement,setting,value
CCCCCc1ccc(/C(C)=C/C(=O)N[C@@H](Cc2c[nH]c3ccccc23)C(=O)N[C@H](CC(N)=O)C(=O)N[C@@H](CC(=O)O)C(=O)N[C@@H]2C(=O)NCC(=O)N[C@@H](CCCN)C(=O)N[C@@H](CC(=O)O)C(=O)N[C@H](C)C(=O)N[C@@H](CC(=O)O)C(=O)NCC(=O)N[C@H](CO)C(=O)N[C@@H]([C@@H](C)CC(=O)O)C(=O)N[C@@H](CC(=O)c3ccccc3N)C(=O)O[C@@H]2C)cc1,MIC,Clostridioides difficile [1],0.5 µg/mL
same,MIC,Staphylococcus aureus [2],0.25 µg/mL
same,MIC,Enterococcus faecium,4 µg/mL
same,MIC,Enterococcus faecalis [3],4 µg/mL
same,Ratio,Enterococcus faecalis [4],>8
same,MIC,Staphylococcus aureus [5],0.25 µg/mL
same,MIC,Staphylococcus aureus [6],0.25 µg/mL
same,MIC,Staphylococcus aureus [7],0.25 µg/mL
same,MIC,Staphylococcus aureus [8],0.5 µg/mL
same,MIC,Staphylococcus aureus [9],2 µg/mL
same,MIC,Staphylococcus aureus [10],1 µg/mL
same,MIC,Staphylococcus aureus [11],0.5 µg/mL
same,MIC,Staphylococcus aureus [12],0.5 µg/mL
same,MIC,Staphylococcus aureus [13],0.25 µg/mL
same,MIC,Staphylococcus aureus [14],0.25 µg/mL
same,MIC,Staphylococcus aureus [15],0.25 µg/mL
same,MIC,Staphylococcus aureus [16],0.5 µg/mL
same,MIC,Staphylococcus aureus [17],0.25 µg/mL
same,MIC,Staphylococcus aureus [18],0.5 µg/mL
same,MIC,Staphylococcus aureus [19],1 µg/mL
same,MIC,Staphylococcus aureus [20],0.5 µg/mL
same,Ratio,Staphylococcus aureus [21],2
same,Ratio,Staphylococcus aureus [22],2
same,Ratio,Staphylococcus aureus [23],2
same,Ratio,Staphylococcus aureus [24],2
same,Ratio,Staphylococcus aureus [25],2
same,Ratio,Staphylococcus aureus [26],2
same,Ratio,Staphylococcus aureus [27],2
same,Ratio,Staphylococcus aureus [28],2
same,Ratio,Staphylococcus aureus [29],2
same,Ratio,Staphylococcus aureus [30],2
same,Ratio,Staphylococcus aureus [31],2
same,Ratio,Staphylococcus aureus [32],2
same,Ratio,Staphylococcus aureus [33],2
same,Ratio,Staphylococcus aureus [34],2
same,survival at 0.5 mg/kg,Clostridioides difficile [35],100%
